# Laboratory results taken from US6613786B2, “Thiophenyl triazol-3-one derivatives as smooth muscle relaxants” (Bristol-Myers Squibb Company, priority 2001, dated 2003).
# Test system: rat bladder strip
# Assay: in vitro rat bladder strip model: inhibition of 10 μM carbachol induced contraction
# Conditions: 1 h; test compound at 3 μM, one hour incubation; 10 μM carbachol induced contraction of rat bladder strip; percent inhibition over controls, normalized for vehicle effects
# Description: The ability of the compounds of the present invention to relax smooth muscle tissue was assessed by their ability to inhibit carbachol induced contractions in mammalian smooth muscle tissue. More specifically, the compounds of the present invention were screened in an in vitro rat bladder strip model to estimate their inhibitory effects on 10 μM carbachol induced contraction of the rat bladder strip according to the following experimental protocol.
# 1. Bladder Strip Tissue Preparation
# Male rats were sacrificed by decapitation, the bladder removed and cleaned of connective tissue. Strips of bladder were then cut from the bladder body and placed in organ baths, suspended between a fixed hook and a force transducer, containing oxygenated physiological buffer maintained at 37° C.
# The bladder strips were primed by stimulating them with 10 μM carbachol to evoke a contraction. The strips were then washed multiple times with fresh physiological buffer and allowed to fully relax. Following a period of recovery, the strips were again challenged with 10 μM carbachol to produce a contraction; this contractile response served as control response. The strips were again washed multiple times and allowed to fully relax (45 minutes). Test compound (3 μM) or vehicle was then added to each organ bath. Following a one hour incubation period, the strips were again stimulated with 10 μM carbachol and the contractile response measured.
# The percent inhibition of the carbachol response by the test compounds was calculated by comparing control and post-compound carbachol responses normalized for vehicle effects. The percentage inhibition for each compound at 3 μM concentration is provided below in Table 1.
row,SMILES,inhibition at 3 µM [%]
1,"O=c1[nH]c(-c2ccc(Br)s2)nn1-c1cc(F)ccc1O [Example 28, 5-(5-Bromothiophen-2-yl)-2-(5-fluoro-2-hydroxyphenyl)-2,4-dihydro-[1,2,4]triazol-3-one]",20 to 35
2,"O=c1[nH]c(-c2sc(Br)cc2Br)nn1-c1cc(Cl)ccc1O [Example 14, 2-(5-Chloro-2-hydroxyphenyl)-5-(3,5-dibromothiophen-2-yl)-2,4-dihydro-[1,2,4]triazol-3-one]",35 to 50
3,"Cc1sc(-c2nn(-c3cc(Cl)ccc3O)c(=O)[nH]2)cc1Br [Example 17, 5-(4-Bromo-5-methylthiophen-2-yl)-2-(5-chloro-2-hydroxyphenyl)-2,4-dihydro-[1,2,4]triazol-3-one]",20 to 35
4,"CCCc1cc(Cl)cc(-n2nc(-c3cccs3)[nH]c2=O)c1O [Example 30, 2-(5-Chloro-2-hydroxy-3-propylphenyl)-5-(thiophen-2-yl)-2,4-dihydro-[1,2,4]triazol-3-one]",20 to 35
5,"O=c1[nH]c(-c2cc(Br)c(Br)s2)nn1-c1cc(Cl)ccc1O [Example 9, 2-(5-Chloro-2-hydroxyphenyl)-5-(4,5-dibromothiophen-2-yl)-2,4-dihydro-[1,2,4]triazol-3-one]",5 to 20
6,"O=c1[nH]c(-c2sc(Br)c(Br)c2Br)nn1-c1cc(Cl)ccc1O [Example 15, 2-(5-Chloro-2-hydroxyphenyl)-5-(3,4,5-tribromothiophen-2-yl)-2,4-dihydro-[1,2,4]triazol-3-one]",5 to 20
7,"Cc1cc(Cl)cc(-n2nc(-c3ccc(Br)s3)[nH]c2=O)c1O [Example 22, 5-(5-Bromothiophen-2-yl)-2-(5-chloro-2-hydroxy-3-methylphenyl)-2,4-dihydro-[1,2,4]triazol-3-one]",20 to 35
8,"O=c1[nH]c(-c2cc(Cl)cs2)nn1-c1cc(Cl)ccc1O [Example 5, 5-(4-Chlorothiophen-2-yl)-2-(5-chloro-2-hydroxyphenyl)-2,4-dihydro-[1,2,4]triazol-3-one]",35 to 50
9,"O=c1[nH]c(-c2cc(Br)c(Cl)s2)nn1-c1cc(Cl)ccc1O [Example 11, 5-(4-Bromo-5-chlorothiophen-2-yl)-2-(5-chloro-2-hydroxyphenyl)-2,4-dihydro-[1,2,4]triazol-3-one]",20 to 35
10,"CC=Cc1cc(Cl)cc(-n2nc(-c3ccc(Br)s3)[nH]c2=O)c1O [Example 29, 5-(5-Bromothiophen-2-yl)-2-(5-chloro-2-hydroxy-3-(prop-1-en-1-yl)phenyl)-2,4-dihydro-[1,2,4]triazol-3-one]",20 to 35
11,"O=c1[nH]c(-c2ccc(Br)s2)nn1-c1cc(Cl)cc(Cl)c1O [Example 23, 5-(5-Bromothiophen-2-yl)-2-(3,5-dichloro-2-hydroxyphenyl)-2,4-dihydro-[1,2,4]triazol-3-one]",20 to 35
12,"O=c1[nH]c(-c2cc(Br)cs2)nn1-c1cc(Cl)ccc1O [Example 4, 5-(4-Bromothiophen-2-yl)-2-(5-chloro-2-hydroxyphenyl)-2,4-dihydro-[1,2,4]triazol-3-one]",35 to 50
13,"O=c1[nH]c(-c2ccc(Br)s2)nn1-c1cc(C(F)(F)F)ccc1O [Example 26, 5-(5-Bromothiophen-2-yl)-2-(2-hydroxy-5-trifluoromethylphenyl)-2,4-dihydro-[1,2,4]triazol-3-one]",35 to 50
14,"O=c1[nH]c(-c2sccc2Cl)nn1-c1cc(Cl)ccc1O [Example 7, 2-(5-Chloro-2-hydroxyphenyl)-5-(3-chlorothiophen-2-yl)-2,4-dihydro-[1,2,4]triazol-3-one]",35 to 50
15,"O=c1[nH]c(-c2ccc(Br)s2)nn1-c1cc(Cl)cc(Br)c1O [Example 21, 2-(3-Bromo-5-chloro-2-hydroxyphenyl)-5-(5-bromothiophen-2-yl)-2,4-dihydro-[1,2,4]triazol-3-one]",20 to 35
16,"O=c1[nH]c(-c2sccc2I)nn1-c1cc(Cl)ccc1O [Example 8, 2-(5-Chloro-2-hydroxyphenyl)-5-(3-iodothiophen-2-yl)-2,4-dihydro-[1,2,4]triazol-3-one]",20 to 35

row,SMILES,inhibition at 3 µM [%]
1,"O=c1[nH]c(-c2ccc(I)s2)nn1-c1cc(Cl)ccc1O [Example 3, 2-(5-Chloro-2-hydroxyphenyl)-5-(5-iodothiophen-2-yl)-2,4-dihydro-[1,2,4]triazol-3-one]",35 to 50
2,"O=c1[nH]c(-c2sccc2Br)nn1-c1cc(Cl)ccc1O [Example 6, 5-(3-Bromothiophen-2-yl)-2-(5-chloro-2-hydroxyphenyl)-2,4-dihydro-[1,2,4]triazol-3-one]",35 to 50
3,"O=c1[nH]c(-c2ccc(Cl)s2)nn1-c1cc(Br)ccc1O [Example 31, 2-(5-Bromo-2-hydroxyphenyl)-5-(5-chlorothiophen-2-yl)-2,4-dihydro-[1,2,4]triazol-3-one]",20 to 35
4,"O=c1[nH]c(-c2ccc(Cl)s2)nn1-c1cc(F)ccc1O [Example 32, 5-(5-Chlorothiophen-2-yl)-2-(5-fluoro-2-hydroxyphenyl)-2,4-dihydro-[1,2,4]triazol-3-one]",35 to 50
5,"O=c1[nH]c(-c2ccc(Br)s2)nn1-c1cc(Cl)c(Br)cc1O [Example 25, 2-(4-Bromo-5-chloro-2-hydroxyphenyl)-5-(5-bromothiophen-2-yl)-2,4-dihydro-[1,2,4]triazol-3-one]",20 to 35
6,"O=c1[nH]c(-c2cc(Cl)sc2Cl)nn1-c1cc(Cl)ccc1O [Example 19, 2-(5-Chloro-2-hydroxyphenyl)-5-(2,5-dichlorothiophen-3-yl)-2,4-dihydro-[1,2,4]triazol-3-one]",35 to 50
7,"O=c1[nH]c(-c2ccc(Br)s2)nn1-c1cc(Br)ccc1O [Example 27, 2-(5-Bromo-2-hydroxyphenyl)-5-(5-bromothiophen-2-yl)-2,4-dihydro-[1,2,4]triazol-3-one]",35 to 50
8,"O=c1[nH]c(-c2cc(Cl)c(Cl)s2)nn1-c1cc(Cl)ccc1O [Example 10, 2-(5-Chloro-2-hydroxyphenyl)-5-(4,5-dichlorothiophen-2-yl)-2,4-dihydro-[1,2,4]triazol-3-one]",20 to 35
9,"Cc1cc(O)c(-n2nc(-c3ccc(Br)s3)[nH]c2=O)cc1Cl [Example 24, 5-(5-Bromothiophen-2-yl)-2-(5-chloro-2-hydroxy-4-methylphenyl)-2,4-dihydro-[1,2,4]triazol-3-one]",20 to 35
10,"O=c1[nH]c(-c2scc(Br)c2Br)nn1-c1cc(Cl)ccc1O [Example 12, 2-(5-Chloro-2-hydroxyphenyl)-5-(3,4-dibromothiophen-2-yl)-2,4-dihydro-[1,2,4]triazol-3-one]",20 to 35
11,"O=c1[nH]c(-c2ccc(Cl)s2)nn1-c1cc(Cl)ccc1O [Example 2, 2-(5-Chloro-2-hydroxyphenyl)-5-(5-chlorothiophen-2-yl)-2,4-dihydro-[1,2,4]triazol-3-one]",35 to 50
12,"O=c1[nH]c(-c2scc(Cl)c2Cl)nn1-c1cc(Cl)ccc1O [Example 13, 2-(5-Chloro-2-hydroxyphenyl)-5-(3,4-dichlorothiophen-2-yl)-2,4-dihydro-[1,2,4]triazol-3-one]",35 to 50
13,"O=c1[nH]c(-c2sc(Cl)c(Cl)c2Cl)nn1-c1cc(Cl)ccc1O [Example 16, 2-(5-Chloro-2-hydroxyphenyl)-5-(3,4,5-trichlorothiophen-2-yl)-2,4-dihydro-[1,2,4]triazol-3-one]",20 to 35
14,"C=CCc1cc(Cl)cc(-n2nc(-c3ccc(Br)s3)[nH]c2=O)c1O [Example 20, 2-(3-Allyl-5-chloro-2-hydroxyphenyl)-5-(5-bromothiophen-2-yl)-2,4-dihydro-[1,2,4]triazol-3-one]",20 to 35
15,"O=c1[nH]c(-c2cc(Br)sc2Br)nn1-c1cc(Cl)ccc1O [Example 18, 2-(5-Chloro-2-hydroxyphenyl)-5-(2,5-dibromothiophen-3-yl)-2,4-dihydro-[1,2,4]triazol-3-one]",20 to 35
16,"O=c1[nH]c(-c2ccc(Br)s2)nn1-c1cc(Cl)ccc1O [Example 1, 5-(5-Bromothiophen-2-yl)-2-(5-chloro-2-hydroxyphenyl)-2,4-dihydro-[1,2,4]triazol-3-one]",35 to 50
